Source: patent US20080226596A1, “Therapeutic compositions and methods useful in treating hepatitis” (priority 2006, published 2008)
“Also recorded” adds a separate entry of the source.

What was measured:
intracellular Flag-PRL-2 = target: T1, intracellular Flag-PRL-2 (Homo sapiens, UniProt Q12974); assay: Immunocomplex PTPase assay, Flag-PRL-2 NIH3T3 transfectants; type: cell-based, mouse
T1 construct: expressed in transfected cells; host or cells: NIH3T3 transfectants, pBabepuro vector
Method: Immunocomplex PTPase assays were performed to assess the effects of sodium stibogluconate on intracellular PTPases. Cells were untreated or treated with sodium stibogluconate for 5 minutes, washed with fresh medium and then lysed in cold lysis buffer (50 mM Tris, pH 7.4; 150 mM NaCl; 1% NP40; 2 mM PMSF; 20, g/ml of Aprotinin). The lysates were incubated with an anti-Flag antibody in immunoprecipitation assays. The immunocomplexes were collected with protein G sepharose beads (Pharmacia) and washed in cold lysis buffer for 4 times. […] 100 µL of malachite green solution (UBI) was added to each reaction prior to measurement of OD660 to quantify the amounts of free phosphate cleaved by the PTPases from the peptide substrate (Pathak et al., J. Imumol. 167, 3391 (2001)). The remaining 10% contents of individual samples were analyzed by SDS-PAGE/Western blotting to quantify the relative amounts of the phosphatase proteins. […]
The effects of sodium stibogluconate on intracellular PTPases were assessed using NIH3T3 or WM9 transfectants. […]

Renca tumors = Renca tumors in Balb/c mice; type: in vivo; conditions: end of treatment; listed as SSG
Method: Balb/c and athymic nude Balb/c mice (10 weeks old, female, Taconic Farms, Germantown, N.Y.) were inoculated (s.c.) at the flanks with Renca cells (10^6 cells/site). […] The dose of SSG was similar to the effective daily dose of the drug for the treatment of murine leishmaniasis (Murray, H. W., J. D. Berman, and S. D. Wright. 1988. Immunochemotherapy for intracellular Leishmania donovani infection: gamma interferon plus pentavalent antimony. J Infect Dis 157:973). Tumor volume was measured during the study period and calculated using the formula for a prolate spheroid (V=4/3×a2b) (Lindner, D. J., E. C. Borden, and D. V. Kalvakolanu. 1997. Synergistic antitumor effects of a combination of interferons and retinoic acid on human tumor cells in vitro and in vivo. Clin Cancer Res 3:931). Student's t test was used for assessing the significance of tumor volume differences among differential treatment groups. Mouse viability (daily) and body weights (weekly) were also recorded during the study period. At the end of the study, Renca tumors and major internal organs (heart, kidney, liver, lung and spleen) were harvested for histology and immunohistochemistry analysis.

PTP1B = target: T2, PTP1B (Homo sapiens, UniProt P18031); assay: In vitro PTPase assay, GST/PTP1B; type: biochemical; conditions: compared with levamisole, pentamidine, ketoconazole
T2 construct: GST; purchased Upstate Biotechnology Inc. (Lake Placid, N.Y.)
T2 sequence (P18031 whole entry, species assumed): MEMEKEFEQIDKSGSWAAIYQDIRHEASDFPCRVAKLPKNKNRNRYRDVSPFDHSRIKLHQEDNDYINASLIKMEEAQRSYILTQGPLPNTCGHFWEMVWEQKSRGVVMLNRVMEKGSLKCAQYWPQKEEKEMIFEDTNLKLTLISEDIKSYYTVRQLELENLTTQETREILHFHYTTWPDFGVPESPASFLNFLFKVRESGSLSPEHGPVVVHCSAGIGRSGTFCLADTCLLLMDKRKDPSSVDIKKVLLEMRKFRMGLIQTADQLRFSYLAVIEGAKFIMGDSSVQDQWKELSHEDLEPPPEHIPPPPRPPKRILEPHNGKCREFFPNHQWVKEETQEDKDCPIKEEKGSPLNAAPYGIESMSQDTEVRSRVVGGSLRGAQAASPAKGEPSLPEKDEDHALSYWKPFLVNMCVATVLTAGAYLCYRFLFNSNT
Method: In vitro PTPase activities were measured using the commercial protein tyrosine phosphatase assay kit (Upstate Biotechnology, Inc. (“UBI”)) following established procedure known to one of skill in the art. This assay measures the in vitro dephosphorylation of a synthetic phosphotyrosine peptide of the sequence Arg-Arg-Leu-Ile-Glu-Asp-Ala-Gle-Tyr-Ala-Ala-Arg-Gly, wherein the tyrosine is phosphorylated (SEQ ID NO: 3). Briefly, 0.01 µg of GST/PTPase fusion proteins was incubated in 50 μL of Tris buffer (10 mM Tris, pH 7.4) containing different concentrations of inhibitors or chemicals (0-1,000 μg/ml) at 22° C. for 10 minutes, followed by addition of 0.2 mM of the phosphotyrosine peptide and incubation at 22° C. for 18 hours. 100 μL of Malachite Green solution was added and incubated for 5 minutes, and the absorbance at 660 nm was measured after 5 minutes.
In vitro PTPase assays were used to determine the effects of levamisole (Sigma), pentamidine (American Pharmaceutical Partners, Inc.), and ketoconazole (Sigma) on recombinant PTPases, following established procedures (Pathak et al., J. Imumol. 167, 3391 (2001); Pathak et al., Leukemia 16, 2285 (2002), Yi et al., J. Immunol. 169, 5978 (2002)) using a synthetic phosphotyrosine peptide or DiFMUP as the substrate as detailed above in section I.A.2.

U266 cells = assay: U266 multiple myeloma cell growth, MTT assay; type: cell-based, human; conditions: day six cultures
Method: For cell proliferation assays, cells were grown in 10% FCS culture medium containing various amounts of IFNs and/or sodium stibogluconate in 96 well plates and cultured at 37° C. for 3 or 6 days as indicated. The numbers of viable cells in proliferation assays were determined by MTT assays as described in Phatak et al., J. Immunol. 167, 3391 (2001).

NB4 cells = assay: NB4 differentiation, NBT reduction; type: cell-based, human
Method: Differentiation of AML cell lines was assessed by their ability to produce superoxide as measured by reduction of NBT to formazan and by analysis of expression of CD11b surface marker by flow cytometry. For NBT reduction, each cell suspension was mixed with an equal volume of solution containing 1 mg/ml of NBT (Sigma) and 2.5 µg/ml of TPA for 30 minutes at 37° C. After incubation, cells containing the purple formazan deposits and cells devoid of NBT-reducing activity (white cells) in each sample were determined by counting 200 cells under microscope. Data is expressed as a percentage based on the following ratio: purple cells/purple+white cells. For analysis of cell surface antigens, cells were exposed to phycoerythrin (PE)-conjugated murine anti-human CD11b (DAKO Corp., Carpinteria, Calif.). Analysis of fluorescence was performed on a FACScan flow cytometer (Beckton Dickinson, Mountain View, Calif.).

T1 sequence (Q12974 whole entry): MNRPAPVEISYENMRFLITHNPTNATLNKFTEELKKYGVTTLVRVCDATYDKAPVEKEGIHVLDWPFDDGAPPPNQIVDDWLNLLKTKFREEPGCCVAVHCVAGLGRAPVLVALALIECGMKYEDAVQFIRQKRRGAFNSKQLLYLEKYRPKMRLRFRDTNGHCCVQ

O.O.O.O.O.O.O.O.O.O=C([O-])[C@@H]1[O][Sb]2([O-])([O][Sb]34([OH])[O][C@H]([C@H](O)CO)[C@H]([O]3)[C@H](C(=O)[O-])[O]4)[O][C@H]([C@H](O)CO)[C@@H]1[O]2.[Na+].[Na+].[Na+] [sodium stibogluconate]
PTPase activity of Flag-PRL-2 immunocomplexes from treated cells (intracellular Flag-PRL-2; 5 min treatment): lack of PTPase activity; also recorded: markedly reduced PTPase activity
time for full removal of effect on intracellular PRL-2 activity (intracellular Flag-PRL-2; brief treatment): at least 24 hours
tolerance/survival of treated Balb/c mice (Renca tumors): tolerated; also recorded: all mice in the treatment group survived
inhibition of PTP1B (PTP1B): only modestly effective
growth inhibition of U266 cells (U266 cells): substantial growth inhibition activity
NB4 differentiation induction (NB4 cells; 10 to 400 μg/ml, day 3 or day 6): differentiation induction activity at all of the dosages
reversal of NB4 differentiation after drug removal (NB4 cells; 6 days with drug (10 or 100 μg/ml), washed, 6 days without): not reversed
